Tests used:
[1] = molecular target: T1, full-length human CHK1 (FL-CHK1) (Homo sapiens, UniProt O14757); test: FL-CHK1 assay (coupled spectrophotometric, Syntide-2); assay type: biochemical; settings: FL-CHK1, 0.15 mM ATP
T1 construct: C-terminally His-tagged full-length human CHK1 (FL-CHK1); 6xHis (C); made in house
T1 sequence (O14757 1-476): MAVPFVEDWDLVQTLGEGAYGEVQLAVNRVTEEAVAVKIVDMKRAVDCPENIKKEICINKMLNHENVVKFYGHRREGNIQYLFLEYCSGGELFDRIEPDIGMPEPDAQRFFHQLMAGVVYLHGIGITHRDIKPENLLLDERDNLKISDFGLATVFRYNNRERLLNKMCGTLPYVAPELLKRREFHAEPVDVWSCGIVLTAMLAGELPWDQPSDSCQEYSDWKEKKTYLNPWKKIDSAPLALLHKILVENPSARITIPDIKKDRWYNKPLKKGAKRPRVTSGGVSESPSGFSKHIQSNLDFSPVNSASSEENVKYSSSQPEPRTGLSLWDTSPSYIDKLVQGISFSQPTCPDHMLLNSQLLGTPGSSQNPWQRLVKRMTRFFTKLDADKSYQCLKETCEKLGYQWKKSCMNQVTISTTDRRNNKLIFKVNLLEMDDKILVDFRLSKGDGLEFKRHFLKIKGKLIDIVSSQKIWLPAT
Source text: C-terminally His-tagged full-length human CHK1 (FL-CHK1) was expressed using the baculovirus/insect cell system. It contains 6 histidine residues (6 x His-tag) at the C-terminus of the 476 amino acid human CHK1. The protein was purified by conventional chromatographic techniques.
The production of ADP from ATP that accompanies phosphoryl transfer to the synthetic substrate peptide Syntide-2 (PLARTLSVAGLPGKK) was coupled to oxidation of NADH using phosphoenolpyruvate (PEP) through the actions of pyruvate kinase (PK) and lactic dehydrogenase (LDH). The oxidation of NADH was monitored by following the decrease of absorbance at 340 nm (ε340=6.22 cm^−1 mM^−1) using a HP8452 spectrophotometer. Typical reaction solutions contained: […] PEP; 0.15 mM NADH; 28 units of LDH/mL; 16 units of PK/mL; 3 mM DTT; 0.125 mM Syntide-2; 0.15 mM ATP; 25 mM MgCl2 in 50 mM TRIS, pH 7.5; and 400 mM NaCl. Assays were initiated with 10 nM of FL-CHK1. Ki values were determined by measuring initial enzyme activity in the presence of varying concentrations of test compounds. The data were analyzed using Enzyme Kinetic and Kaleidagraph software. […]

[2] = system: CA-46 (lymphoma) cells; test: Whole cell checkpoint abrogation assay (CHK1 Mitotic Index ELISA); assay type: cell-based; settings: @ 1 μM
Protocol: To examine the in vitro effects of CHK1 inhibitory compounds, an ELISA assay can be designed to monitor the abrogation of DNA damage-induced checkpoint control. The assay can be based on the trapping and detection of mitotic cells following DNA damage-induced arrest.
CA-46 (lymphoma) cells can be treated with a DNA damaging agent, such as camptothecin (Sigma), at 50 nM for 8 hours to induce DNA damage. The control compound or CHK1 inhibitor can be then added at increasing concentrations with Nocodazole (Sigma) at 0.1 μg/ml and plates can be incubated for 16 hours. Control cells, where only CHK1 inhibitors can be added, can be prepared as well to assure that the inhibitors alone have no effect on the cell cycle. The cells can be then harvested, washed with PBS, and crude acid extraction can be performed. Pellets can be resuspended in 80 μl of Acid Extraction Buffer (10 mM Hepes pH 7.9, 1.5 mM MgCl2, 10 mM KCl, 0.5 mM DTT, 1.5 mM PMSF, 0.4N sulfuric acid), vortexed briefly, and incubated for 30 minutes on ice. Samples can be then centrifuged and 75 μl of the supernatant can be transferred to a 96 well flat-bottom plate (VWR 3596). Next 15 μl Neutralizing Cocktail (# of samples×(10 μl 10N NaOH+5 μl 1M Tris Base) can be added to each well, and after mixing, 5 μl of this can be transferred to another 96 well plate with 100 μl 50 mM Tris base (pH 9.6) in each well. Samples can be dried overnight. The wells can be then washed with 200 μl ELISA wash buffer (PBS with 20 mM Tris pH 7.5, 0.05% Tween 20) 5 times and blocked with 200 μl blocking buffer (PBS with 20 mM Tris pH 7.5, 0.05% Tween 20, 3.5% Dry milk, 1.5% BSA. pH to 7.5 after preparation) for 1 hour at room temperature. Following wash and block, anti-phospho Histone H3 antibodies (Upstate USA, Inc., rabbit polyclonal) can be added at 0.5 μg/ml in block (100 μl per well) and incubated for 2 hours at room temperature. Wells can be washed again to remove unbound primary antibody and 100 μl alkaline phosphatase conjugated secondary antibodies at 0.3 mg/ml (Pierce, goat anti-rabbit IgG ([…]+L)) in block can be added for 1 hour at room temp. Wells can be washed 5 times to remove unbound secondary antibody, and washed again 3 times with PBS alone to remove detergents. Then 100 μl alkaline phosphatase substrate (Pierce 1-Step pNPP) can be added to wells. Plates can be protected from light and incubated at room temp for 1 hour. The OD can be read on Molecular Devices Vmax Kinetic Microplate Reader at 405 nm. The ratio of the OD (optical density) of a compound treated sample to the Nocodazole only treated sample (about 100% mitotic or abrogation) can be expressed in a percentage, and quantifies the percent abrogation of the checkpoint. The concentration at which a compound causes 50% abrogation of the checkpoint can be called the EC50. The raw OD values can be graphed in Excel, and an EC50 value can be generated using Kaleidograph software. Strong signal results from Nocodazole only treated cells, and equals 100% mitosis in this assay. Camptothecin+Nocodazole treated control samples have low signal, signifying no mitosis and therefore, no checkpoint abrogation. When potent CHK1 inhibitors are added to Camptothecin treated cells with Nocodazole, a high signal can be generated (generally in a dose dependent manner), due to the checkpoint abrogation activity caused by the combination treatment.

Ki [1]: 1 to 10 nM
Structure (SMILES): Oc1ccc(-c2ccc(-c3cc(Nc4ccc(CNC5CC5)nc4)n[nH]3)cc2)c(O)c1 [Example 24, 4′-[5-({6-[(cyclopropylamino)methyl]pyridin-3-yl}amino)-1H-pyrazol-3-yl]-1,1′-biphenyl-2,4-diol]
percent abrogation of the checkpoint [2]: 1% @ 1 μM

Reference: US20050043381A1, “Aminopyrazole compounds” (AGOURON PHARMACEUTICALS, INC., priority 2003, published 2005)
